This note sets out measurements from paper PMC6240685, “Strong Inhibitory Effect, Low Cytotoxicity and High Plasma Stability of Steroidal Inhibitors of N-Methyl-D-Aspartate Receptors With C-3 Amide Structural Motif” (Frontiers in Pharmacology, 2018).

The nature of data set [1]: Plasma stability, human plasma. The settings on record: human, plasma. The class given is in vitro ADME.
Another data set addresses T1, GluN1/GluN2A receptors (Rattus norvegicus, UniProt P35439+Q00959).
T1 construct: expressed in transfected cells; host or cells: HEK293
Description: Patch-clamp inhibition of GluN1/GluN2A receptors in transfected HEK293 cells. The class given is cell-based. The settings on record: 1 mM glutamate and 10 μM glycine. As for the experimental part:
FIGURE 7 Concentration–response properties of compound 6 on GluN1/GluN2A-D receptors. (A) Examples of traces obtained from HEK293 cells transfected with cDNAs encoding GluN1/GluN2A, GluN1/GluN2B, GluN1/GluN2C, and GluN1/GluN2D receptors. Agonists (1 mM glutamate and 10 μM glycine) were applied alone and simultaneously with compound 6 (10 μM) to evaluate the inhibitory effect of compound 6 on NMDAR mediated currents (duration of glutamate and steroid application is indicated by filled and open bars, respectively). (B) Concentration–response curves for the compound 6 effect at GluN1/GluN2A-D receptors. Data points are averaged values of normalized responses from at least four HEK293 cells. Error bars represent SD.
Electrophysiological experiments were performed on HEK293 cells transfected with plasmids encoding rat GluN1-1a/GluN2A-D and GFP genes as described previously, ([Petrovic et al., 2005]; [Cais et al., 2008]; [Korinek et al., 2010]) or on primary hippocampal neurons prepared from P0–P1 rats, plated on collagen/poly-D-lysine-coated glass coverslips at a density of ∼50,000 cells/cm^2, and grown in Neurobasal A medium with B27 Supplement (Gibco). Agonist-induced responses were voltage-clamped at a holding potential of −60 mV. […] Agonist-induced responses were low-pass filtered at 2 kHz, digitally sampled at 5 kHz, and analyzed with pClamp software version 10.5 (Molecular Devices). […]
A general note: The patch-clamp technique gives a direct electrical read-out from membranes.

T1 sequence (Q00959 23-1464, other chains not shown): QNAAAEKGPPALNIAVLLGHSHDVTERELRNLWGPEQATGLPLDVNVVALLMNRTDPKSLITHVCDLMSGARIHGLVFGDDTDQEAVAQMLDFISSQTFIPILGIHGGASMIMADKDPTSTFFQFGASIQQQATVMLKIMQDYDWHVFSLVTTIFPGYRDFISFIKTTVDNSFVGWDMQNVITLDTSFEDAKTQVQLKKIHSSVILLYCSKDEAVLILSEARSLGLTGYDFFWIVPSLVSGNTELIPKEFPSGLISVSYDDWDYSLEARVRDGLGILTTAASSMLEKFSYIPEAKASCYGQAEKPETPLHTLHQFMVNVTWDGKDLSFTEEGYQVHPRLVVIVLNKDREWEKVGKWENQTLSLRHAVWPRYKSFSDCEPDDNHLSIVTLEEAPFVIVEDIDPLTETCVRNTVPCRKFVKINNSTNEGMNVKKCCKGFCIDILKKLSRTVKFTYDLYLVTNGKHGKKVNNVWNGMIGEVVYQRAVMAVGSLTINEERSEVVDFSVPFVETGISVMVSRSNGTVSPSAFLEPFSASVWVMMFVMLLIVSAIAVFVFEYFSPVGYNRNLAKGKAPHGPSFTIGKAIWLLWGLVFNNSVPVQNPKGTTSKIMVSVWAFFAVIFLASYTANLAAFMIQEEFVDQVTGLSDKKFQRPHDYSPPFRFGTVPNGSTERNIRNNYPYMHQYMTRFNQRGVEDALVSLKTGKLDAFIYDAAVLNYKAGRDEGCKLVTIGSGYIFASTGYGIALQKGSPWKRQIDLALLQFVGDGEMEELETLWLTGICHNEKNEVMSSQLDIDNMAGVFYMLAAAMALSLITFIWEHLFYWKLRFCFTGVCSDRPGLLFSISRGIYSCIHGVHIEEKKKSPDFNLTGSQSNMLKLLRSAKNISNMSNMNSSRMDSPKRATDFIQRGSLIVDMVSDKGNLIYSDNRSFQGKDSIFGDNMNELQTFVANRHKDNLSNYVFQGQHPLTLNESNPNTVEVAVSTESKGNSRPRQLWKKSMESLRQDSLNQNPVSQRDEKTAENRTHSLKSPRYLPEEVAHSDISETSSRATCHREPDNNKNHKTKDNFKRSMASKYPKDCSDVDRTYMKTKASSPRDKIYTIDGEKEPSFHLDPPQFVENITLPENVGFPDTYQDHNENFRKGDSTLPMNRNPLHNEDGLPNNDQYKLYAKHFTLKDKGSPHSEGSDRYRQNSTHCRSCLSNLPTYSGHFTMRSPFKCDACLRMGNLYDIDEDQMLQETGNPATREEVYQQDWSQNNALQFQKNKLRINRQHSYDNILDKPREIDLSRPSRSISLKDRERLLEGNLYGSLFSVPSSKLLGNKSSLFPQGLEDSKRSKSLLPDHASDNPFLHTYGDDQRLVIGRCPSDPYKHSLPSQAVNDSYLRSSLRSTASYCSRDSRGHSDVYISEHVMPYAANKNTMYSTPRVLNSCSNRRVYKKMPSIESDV

The share remaining is what is left of the initial amount, in per cent. Low values mean more turnover, high ones less turnover. By IC50 is commonly meant the concentration at which inhibition is half-maximal. A lower IC50 goes with higher potency. In the case of `C[C@@]12CCC[C@H]1[C@@H]1CC[C@@H]3C[C@H](NC(=O)[C@@H](N)CC(=O)O)CC[C@]3(C)[C@H]1CC2` [Compound 6, (S)-3-amino-4-(((3R,5R,8S,9S,10S,13S,14S)-10,13-dimethylhexadecahydro-1H-cyclopenta[a]phenanthren-3-yl)amino)-4-oxobutanoic acid], in data set [1], the amount remaining at 8 h, 42.1 μg/mL amounted to 100%. For the same molecule, at GluN1/GluN2A receptors, the “h ± SD (apparent Hill coefficient)” value is 1.3 ± 0.1. Half-maximal inhibition against GluN1/GluN2A receptors (concentration-response) (IC50) required 6.5 ± 0.7 µM.
